Experimental data as given in US9567586B2, “EpCAM aptamer for detection of cancer stem cells” (DEAKIN UNIVERSITY, priority 2012, dated 2017).
Where two headings read alike, the source gives them in different places.

What was measured:
EpCAM [1] = assay: Immunofluorescence staining of paraffin embedded xenograft tumour sections; parameters: species or system human; key to Quantification of anti-EpCAM staining by immunofluorescence: ‘−’ no staining; ‘+’ faint incomplete staining in >10% of cells; ‘++’ moderate complete membrance staining; ‘+++’ strong complete membrance staining
Description: (§1) A: Immunofluorescence staining of breast cancer (T47D, MCF7 and MDA-MB-231), colon cancer (HT-29) and glioblastoma (U118MG) xenograft tumours by EpCAM aptamers, DT3 and 23, control aptamer and the anti-EpCAM antibody, 323/A3 (Blue: nuclei; Red: EpCAM positive staining). B: Immunohistochemistry was performed with the anti-EpCAM antibody BerEP4, and all tumours were evaluated by haematoxylin and eosin staining for morphological confirmation. Aptamer staining was performed for 15 min at 37° C., while 323/A3 staining was performed at 4° C. overnight and BerEP4 was performed at room temperature for 20 min. All fluorescent images were taken at 60×, while light microscopy images were taken at 20×. Images are representative of at least three separate experiments. Scale bar: 50 μm.
(§2) The cell lines of human origin used in this study were purchased from American type Culture Collection. They were glioblastoma U118-MG; breast carcinoma MCF-7, MDA-MB-231 and T47D; and colorectal adenocarcinoma HT-29. Cells were grown and maintained in culture with Dulbecco's Modified Eagle medium (DMEM) (Invitrogen, Victoria, Australia) supplemented with 10% fetal calf serum (MCF-7, T47D, HT-29, and U118-MG), or Roswell Park Memorial Institute 1640 (RPMI 1640) (Invitrogen) with 10% fetal calf serum (MDA-MB-231). Cells were maintained at 37 ^CC in a humidified atmosphere containing 5% CO2. For xenograft studies, single cell suspensions were harvested by trypsinisation, washed with PBS and resuspended in 0.1 mL of PBS for implantation in BALB/c-Foxn1 ^nu female mice. Once tumours had reached approximately […], they were excised and fixed in 10% neutral buffered formalin prior to processing and embedding. All animal procedures were approved by Deakin University Animal Welfare Committee, and in accordance with the Australian Code of Practice for the Care and Use of Animals for Scientific Purposes.
(§3) Sections from each of the xenograft tumours were cut at 4 μm onto polylysine coated slides prior to deparaffinisation with Histoclear and rehydration through graded ethanol. Heat induced antigen retrieval was performed in a microwave oven using Tris-EDTA buffer (10 mM Tris, 1 mM EDTA, 0.05% Tween 20, pH 9.0) for 20 min and the slides were allowed to cool prior to blocking with 0.1 mg/mL tRNA, 0.1 mg/mL salmon sperm DNA and 1 mg/mL bovine serum albumin (BSA) in phosphate buffered saline (PBS) for 20 min. Following the blocking step, slides were washed in PBS containing 0.1% Tween 20 twice for 2 min prior to incubation with either aptamer or antibody. Aptamers were prepared as previously described (Shigdar S et al, supra). Briefly, aptamers were heated to 85° C. for 5 min, allowed to cool to room temperature for 10 min and then heated at 37° C. for 15 min. Slides were incubated with aptamers at 100 nM concentration in a solution of PBS containing 5 mM MgCl2, 0.1 mg/mL tRNA, 1 mg/mL BSA, 10% dextran sulphate and 500 μg/mL heparin for 15 min at 37° C. The slides were then washed three times for 5 min each prior to incubation with Bisbenzimide Hoechst 33342 (3 μg/mL) for 10 min. Slides were then mounted using VECTASHIELD and coverslipped prior to visualisation using a Fluoview FV10i laser scanning confocal microscope. All images used for direct comparison were taken with identical exposure parameters and are presented without any digital contrast alteration or background subtraction. Antibody staining was performed using the anti-EpCAM antibody 323/A3 (ab8601, Abcam). […]

EpCAM [2] = molecular target: T1, EpCAM (Homo sapiens, UniProt P16422); assay: as above; parameters: from tissue; host or cells: xenograft tumours of T47D, MCF7, MDA-MB-231, HT-29 and U118MG cells grown in BALB/c-Foxn1 nu mice, formalin-fixed and paraffin-embedded; key to Quantification of anti-EpCAM staining by immunofluorescence: ‘−’ no staining; ‘+’ faint incomplete staining in >10% of cells; ‘++’ moderate complete membrance staining; ‘+++’ strong complete membrance staining
T1 sequence (P16422 24-314): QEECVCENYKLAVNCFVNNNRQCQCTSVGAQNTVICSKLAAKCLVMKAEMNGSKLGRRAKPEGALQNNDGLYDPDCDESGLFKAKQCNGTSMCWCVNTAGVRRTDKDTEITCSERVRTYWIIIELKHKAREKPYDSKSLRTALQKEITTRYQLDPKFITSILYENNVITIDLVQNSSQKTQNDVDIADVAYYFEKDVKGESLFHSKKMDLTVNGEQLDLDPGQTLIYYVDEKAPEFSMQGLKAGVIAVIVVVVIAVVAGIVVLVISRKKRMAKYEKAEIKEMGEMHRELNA
Description: as §1, §2
as §3, with “Abcam). Slides were washed and blocked following the same protocol as previously described prior to antibody staining. The antibody was prepared at a concentration of 10 μg/mL and the slides were incubated overnight at 4° C. Slides were then washed three times for 5 min followed by incubation with a goat-anti-mouse IgG AlexaFluor 647 conjugate (Invitrogen) at a concentration of 10 μg/mL for 2 h prior to washing, staining with Bisbenzimide Hoechst 33342, and coverslipping.” for “Abcam).”

[3] = molecular target: T2, native EpCAM expressed on the cell surface (Homo sapiens, UniProt P16422); assay: Binding affinities of EpCAM aptamers by flow cytometry; conditions: read-out: KD (±SEM)
T2 construct: host or cells: T47D, MCF7, MDA-MB-231, HT-29 (EpCAM-positive); U118MG (EpCAM-negative control)
T2 sequence (P16422 24-314): T1 sequence (P16422 24-314)
Description: (§4) Cells were harvested at 80% confluence with trypsin digestion and resuspended in washing buffer (DPBS with 5 mM MgCl2) and enumerated. Following centrifugation (1000×g for 5 min), the cell pellet was resuspended in assay buffer (DPBS supplemented with 5 mM MgCl2, 0.1 mg/ml tRNA, 0.1 mg/ml salmon sperm DNA, 0.2% [w/v] sodium azide, and 5% FCS) and diluted to 1×10^6/mL. The blocking step was carried out at 4′C. The binding of the aptamers was carried out at 37′C for 30 min or 4′C for 1 h, with the final concentration of magnesium chloride being 2.5 mM in all binding assays.
(§5) The equilibrium dissociation constant (K′d) of successful 2′-fluoropyrimidine RNA aptamer species to native EpCAM expressed on the cell surface was determined using flow cytometry with EpCAM-positive and -negative cell lines and a negative control (2-O-methyl-pyrimidine) aptamer (5′-DY647-mGCmGACUmGmGUUmACCCmGmGUCmGdT-3′) (SEQ ID NO:13). Kato III or U118MG cells (5×10^5) were first incubated with assay buffer followed by two washes with binding buffer prior to incubation with serial concentrations (approximately 10-fold above and below the apparent K′d) of FITC-labelled aptamer in a 100 μL assay buffer for 1 h on ice. The cells were washed three times, resuspended in 150 μL assay buffer containing 2.5 mM MgCl2 and subjected to flow cytometric analyses. The FITC-labelled unselected library was used as another negative control. The mean fluorescence intensity (MFI) of the unselected library was subtracted from that of the aptamer-target cell to generate the MFI of specific binding. The K′d for each aptamer was determined by Scatchard analysis according to the equation: [Bound aptamer]/[aptamer]=−(1/KD)×[bound aptamer]+([T]tol/KD) where [T]tot represents the total target concentration. Design and Generation of EpCAM Aptamer-siRNA Chimera
(§6) The binding affinities of both aptamers have been characterised against all five cell lines used in this study by flow cytometry, and the results are shown in Table 1.

[4] = tested on: native EpCAM expressed on the cell surface; assay: as above; parameters: species or system human; conditions: U118MG cells (EpCAM negative); read-out: KD (±SEM)
Description: as §4, §5, §6

HT29 colon cancer cells = assay: Tumoursphere formation in 96-well, HT29; assay type: cell-based, human; conditions: HT29, 3 μM Dox equivalent, 5 days
Description: Under non-adherent and serum-free conditions, only the cancer stem cells (CSCs) and progenitor cells survive and undergo self-renewal as well as proliferate to form tumour spheres. The inventor studied the ability of aptamer-Dox to target cancer stem cells by plating various cell doses of single-cell suspension of HT29 colon cancer cells in ultra-low attachment 96-wells in the presence of 3 μM of free Dox, 3 μM equivalent Dox conjugated with aptamer, 3 μM Dox-negative control aptamer or vehicle control for 5 days. Tumour spheres (with a size >50 μm) were enumerated.

[5] = tested on: PLC/PRF/5 hepatocellular carcinoma cell line; assay: Tumoursphere formation in 96-well, PLC/PRF/5; assay type: cell-based, human
EpCAM [6] = molecular target: T1, EpCAM; conditions: patients with metastatic breast cancer; cited from earlier work

5′-GCGACUGGUUACCCGGUCG-3′ (RNA aptamer, modifications not given here, further chemistry not given here) [DT3]
Quantification of anti-EpCAM staining by immunofluorescence (EpCAM [1]; U118MG xenograft): −
staining of U118MG xenograft (in words) (EpCAM [1]; U118MG xenograft that does not express EpCAM): no staining detectable
staining of HT-29 xenograft sections (in words) (EpCAM [2]; HT-29 colorectal cancer xenograft): did not show any staining
Quantification of anti-EpCAM staining by immunofluorescence (EpCAM [2]; HT-29 xenograft): −
Quantification of anti-EpCAM staining by immunofluorescence (EpCAM [2]; MCF7 xenograft): + (‘+’ faint incomplete staining in >10% of cells)
Quantification of anti-EpCAM staining by immunofluorescence (EpCAM [2]; MDA-MB-231 xenograft): + (‘+’ faint incomplete staining in >10% of cells)
detection of EpCAM in MDA-MB-231 xenograft tumour (in words) (EpCAM [2]; MDA-MB-231 xenograft, low EpCAM expression): successfully detect EpCAM
Quantification of anti-EpCAM staining by immunofluorescence (EpCAM [2]; T47D xenograft): ++
staining of human breast cancer xenografts (in words) (EpCAM [2]; T47D, MCF7 and MDA-MB-231 xenografts, 100 nM, 15 min, 37° C., dextran sulphate and heparin): highly sensitive staining
Kd ([3]; HT29 cells): 158 ± 70 nM
Kd ([3]; MCF7 cells): 50 ± 18.5 nM
Kd ([3]; MDA-MB-231 cells): 98.9 ± 37.8 nM
Kd ([3]; T47D cells): 74.2 ± 26.2 nM
Kd [4]: > 1000 nM

CC[C@@H](C(=O)[C@@H](C)[C@@H](O)[C@H](C)[C@@H]1O[C@@H]([C@@H](CC)C(=O)O)CC[C@@H]1C)[C@H]1O[C@]2(C=C[C@@H](O)[C@]3(CC[C@@](C)([C@H]4CC[C@](O)(CC)[C@H](C)O4)O3)O2)[C@H](C)C[C@@H]1C [Saline, Salinomycin]
Number of wells with sphere (HT29 colon cancer cells; 1 cell seeded/well): 0/10
Number of wells with sphere (HT29 colon cancer cells; 10 cells seeded/well): 0/10
Number of wells with sphere (HT29 colon cancer cells; 100 cells seeded/well): 0/10
Number of wells with sphere (HT29 colon cancer cells; 200 cells seeded/well): 2/10
Number of wells with sphere ([5]; 1 cell seeded/well): 0/10
Number of wells with sphere ([5]; 10 cells seeded/well): 0/10
Number of wells with sphere ([5]; 100 cells seeded/well): 0/10
Number of wells with sphere ([5]; 200 cells seeded/well): 0/10

adecatumumab: fully humanised monoclonal anti-EpCAM antibody
clinical response (EpCAM [6]): dose-dependent and target dependent clinical responses
